Assay results reported in patent publication US12448388B2, “PRMT5 inhibitors and uses thereof” (Gilead Sciences, Inc., priority 2023, dated 2025).

These molecules were tested on HCT116 MTAP-deleted cell lines (assay: Cell viability assay (CellTiter-Glo, 7 days), HCT116 MTAP-deleted). Conditions: Homo sapiens, HCT-116; cell viability assay, HCT116 MTAP-deleted; class symbols; read-out: CC50.
Format: cell-based
In short: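 HCT116 MTAP-deleted and wild-type cells exposed to serially diluted compound for 7 days at 37 °C, 5% CO2. Viability read by CellTiter-Glo luminescence; CC50 derived per line, with selectivity comparing WT to MTAP-deleted, limited solubility can inflate values marked *.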
In the case of `C[C@H](c1ncc(C(F)(F)F)cc1F)N(C)C(=O)c1cc2c(cc1F)nc(N)c1cncn12` [Ff-537, (R)-4-amino-7-fluoro-N-(1-(3-fluoro-5-(trifluoromethyl)pyridin-2-yl)ethyl)-N-methylimidazo[1,5-a]quinoxaline-8-carboxamide], the CC50 is reported as < 0.1 µM.
For `CCN(C(=O)c1cc2c(cc1F)nc(N)c1cncn12)[C@H](C)c1ncc(C(F)(F)F)cc1F` [Ff-538, (R)-4-amino-N-ethyl-7-fluoro-N-(1-(3-fluoro-5-(trifluoromethyl)pyridin-2-yl)ethyl)imidazo[1,5-a]quinoxaline-8-carboxamide], the CC50 was < 0.1 µM.
With `Nc1nc2cc(F)c(C(=O)N3CCO[C@@H]4Cc5cc(C(F)(F)F)cc(F)c5[C@@H]43)cc2n2cncc12` [Ff-539, (4-amino-7-fluoroimidazo[1,5-a]quinoxalin-8-yl)((4aS,9aR)-5-fluoro-7-(trifluoromethyl)-2,3,9,9a-tetrahydroindeno[2,1-b][1,4]oxazin-4(4aH)-yl)methanone] the CC50 was < 0.1 µM.
`Nc1nc2cnc(C(=O)N3CCO[C@@H]4Cc5cc(C(F)(F)F)cc(F)c5[C@@H]43)cc2n2cncc12` [Ff-540, (4-aminoimidazo[1,5-a]pyrido[3,4-e]pyrazin-8-yl)((4aS,9aR)-5-fluoro-7-(trifluoromethyl)-2,3,9,9a-tetrahydroindeno[2,1-b][1,4]oxazin-4(4aH)-yl)methanone] showed a CC50 of 0.1 to 1 µM.
For `CN(C(=O)c1cc2c(cc1F)nc(N)c1cncn12)[C@H](CC1CC1)c1ccc(C(F)(F)F)cn1` [Ff-541, (R)-4-amino-N-(2-cyclopropyl-1-(5-(trifluoromethyl)pyridin-2-yl)ethyl)-7-fluoro-N-methylimidazo[1,5-a]quinoxaline-8-carboxamide], the CC50 was 0.1 to 1 µM.
With `CCN(C(=O)c1cc2c(cc1F)nc(N)c1cncn12)[C@H](C)c1ccc(C(F)(F)F)cn1` [Ff-542, (R)-4-amino-N-ethyl-7-fluoro-N-(1-(5-(trifluoromethyl)pyridin-2-yl)ethyl)imidazo[1,5-a]quinoxaline-8-carboxamide] the CC50 was < 0.1 µM.
`CCN(C(=O)c1cc2c(cc1F)nc(N)c1cncn12)[C@@H](C)c1ccc(C(F)(F)F)cn1` [Ff-543, (S)-4-amino-N-ethyl-7-fluoro-N-(1-(5-(trifluoromethyl)pyridin-2-yl)ethyl)imidazo[1,5-a]quinoxaline-8-carboxamide] was tested, and the CC50 was < 0.1 µM.
With `CN(C(=O)c1cc2c(cc1F)nc(N)c1cncn12)[C@@H]1COc2cc(C3CC3)ccc21` [Ff-546, (S)-4-amino-N-(6-cyclopropyl-2,3-dihydrobenzofuran-3-yl)-7-fluoro-N-methylimidazo[1,5-a]quinoxaline-8-carboxamide] the CC50 was < 0.1 µM.
`CN(Cc1nc(-c2cnn(C(F)(F)F)c2)cs1)C(=O)c1cc2c(cc1F)nc(N)c1cncn12` [Ff-550, 4-amino-7-fluoro-N-methyl-N-((4-(1-(trifluoromethyl)-1H-pyrazol-4-yl)thiazol-2-yl)methyl)imidazo[1,5-a]quinoxaline-8-carboxamide] gave a CC50 of 0.1 to 1 µM.
In the case of `CN(Cc1ccc(-c2cnn(C(F)F)c2)cc1Cl)C(=O)c1cc2c(cc1F)nc(N)c1cncn12` [Ff-551, 4-amino-N-(2-chloro-4-(1-(difluoromethyl)-1H-pyrazol-4-yl)benzyl)-7-fluoro-N-methylimidazo[1,5-a]quinoxaline-8-carboxamide], the CC50 is reported as 0.1 to 1 µM.
For `CN(Cc1ccc(-c2cnn(C(F)(F)F)c2)cc1Cl)C(=O)c1cc2c(cc1F)nc(N)c1cncn12` [Ff-552, 4-amino-N-(2-chloro-4-(1-(trifluoromethyl)-1H-pyrazol-4-yl)benzyl)-7-fluoro-N-methylimidazo[1,5-a]quinoxaline-8-carboxamide], the CC50 was 0.1 to 1 µM.
`COc1cc(-c2cnn(C(F)F)c2)ccc1CN(C)C(=O)c1cc2c(cc1F)nc(N)c1cncn12` [Ff-553, 4-amino-N-(4-(1-(difluoromethyl)-1H-pyrazol-4-yl)-2-methoxybenzyl)-7-fluoro-N-methylimidazo[1,5-a]quinoxaline-8-carboxamide] gave a CC50 of 0.1 to 1 µM.
